The target of assay [1] is T1, GGP1 (Arabidopsis thaliana, UniProt Q9M0A7).
T1 sequence (Q9M0A7 1-250): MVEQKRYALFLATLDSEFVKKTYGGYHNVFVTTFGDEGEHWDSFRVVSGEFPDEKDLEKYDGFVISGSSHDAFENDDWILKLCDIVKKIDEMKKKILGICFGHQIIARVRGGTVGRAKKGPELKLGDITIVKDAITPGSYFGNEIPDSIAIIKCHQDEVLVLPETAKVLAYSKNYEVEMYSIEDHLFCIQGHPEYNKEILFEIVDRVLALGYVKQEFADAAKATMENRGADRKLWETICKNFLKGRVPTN
Put plainly: In-vitro assay for GGP1 activity with the standard substrate GPNA (absorbance at 405 nm). As to conditions: 1 mM GPNA, crude E. coli extract, linear part of the GGP1 curve. Further details: His-tag (pRSET-A N-terminal leader) (N); made in house; host or cells: E. coli. Type of assay: biochemical. On the procedure: In vitro assays were assembled with […] of crude protein extract from a cleared E. coli lysate (before column purification) in 0.1 M Tris-HCl at pH 7.5 to a total volume of 150 μl. Assay is initiated by addition of GPNA to a final concentration of 1 mM and enzyme activity is measured by absorbance at 405 nm. Absorbance was measured with 5 minute intervals from time 0-20 minutes using a spectrophotometer.

Assay [2] has as its target T1, GGP1. As to conditions: GS-X as substrate, 10 to 90 μM; purified recombinant His-tagged GGP1; ± SE; Michaelis-Menten fit.
Method: Recombinant GGP1 was expressed in E. coli from the vector pRSET-A (Invitrogen) as an N-terminal His-tag fusion. Cells were grown in LB medium and induced by adding 0.02 mM IPTG at an OD600 of 0.1-0.4. After 16 hours of incubation at 18° C. and 220 rpm, cells were harvested and resuspended in binding buffer [100 mM Tris-HCl, 500 mM NaCl, 50 mM imidazole, pH 7.5] supplemented with 1 mM PMSF and 1 mM MgCl. Cell lysis was achieved by lysozyme treatment and subsequent sonication. Cell debris was spun down for 20 min at 20 000 g, and the supernatant was run through a Ni-NTA column. The column was washed with binding buffer, and bound protein was released with elution buffer [100 mM Tris-HCl, 500 mM NaCl, 500 mM imidazole, pH 7.5]. As a control, a parallel purification was performed for an empty pRSET-A vector.
200 ng of purified GGP1 or 200 ng of control protein were assayed in a final volume of 100 μL containing 20 mM Tris-HCl pH 7.5 and 20 μM GS-X. The reactions were stopped after 10 min upon addition of 300 μL methanol. After an overnight incubation at −20° C., the mixture was spun down for 20 min at 5 000 g and 200 μL of the supernatant were evaporated and redisolved in 50 μL of 75% methanol. Analysis was performed using the LC-MS/MS method previously described. For the determination of Km, similar assays were performed using a range of GS-X concentrations spanning from 10 to 90 μM. […]

“And” between values parts separate entries of the source, which are not always exact repeats. Equal entries are not always repeated.

Regarding `N[C@@H](CCC(=O)Nc1ccc([N+](=O)[O-])cc1)C(=O)O` [GPNA, gamma-glutamyl-p-nitroanilide], the “activity of crude extract containing recombinant GGP1 versus control extract (cleavage to p-nitroanilide)” value in assay [1] is “around 10 times”.

With `NC(CCC(=O)NC(CSC(Cc1ccccc1)=NO)C(=O)NCC(=O)O)C(=O)O` [GS-X, S-(phenylacetohydroxymoyl)-L-glutathione], the Km (usually the concentration of substrate that gives half-maximal velocity) in assay [2] was 56.6 µM and 57 µM.

The values above are taken from patent US9096863B2, “Biosynthetic engineering of glucosinolates” (University of Denmark, priority 2008, dated 2015).
